# Laboratory results taken from patent US20120315290A1, “INHIBITORS OF LL-37 MEDIATED IMMUNE REACTIVITY TO SELF NUCLEIC ACIDS” (BOARD OF REGENTS, THE UNIVERSITY OF TEXAS SYSTEM, priority 2006, published 2012).
# “Also recorded” adds a separate entry of the source. Where no end group is shown, it is not given here.
# B1: S100-7: AMP cultured with pDC at equimolar doses (protein, UniProt P31151 2-101, looked up)
# Protein S100-A7: SNTQAERSIIGMIDMFHKYTRRDDKIEKPSLLTMMKENFPNFLSACDKKGTNYLADVFEKKDKNEDKKIDFSEFLSLLGDIATDYHKQSHGAAPCSGGSQ
# Assays:
# [1] = test system: LL-37-mediated activation of pDC; assay: Inhibition of LL-37-mediated IFN-α induction in pDC; assay type: cell-based, human; conditions: pDC stimulated with LL-37 (10 μM) in presence of the substance
# Description: (§1) (A) pDC were stimulated with LL-37 (10 μM) in the presence of pertussis toxin (PTX) or KN62 to block the FPRL-1 and the P2X pathway respectively. Furthermore agonistic W peptide and ATP were used to stimulate these pathways on pDC. (B) pDC were stimulated with LL-37 (10 μM) in the presence of increasing concentrations of chloroquine to block the endosomal TLR pathway. (C) PDC were pre-treated DNase I, TLR-9 inhibitor (IRS, 4 μM) or ctrl ODN sequences for 30 min and followed by incubation with LL-37 (10 μM), CpG 2216 (CpGA, 1 μM) or imiquimod (R837,10 μg/ml) for 24 h (A). The culture supernatants were analyzed for IFN-α production by ELISA. One representative experiment of three is shown.
# Heparin (an anionic sugar) was preincubated for ½ h with LL-37 before stimulating pDC (thus associating with self-DNA released by dying cells in culture) or before adding genomic human DNA and subsequently stimulating pDC.
# (§2) PDC from healthy donors were purified from freshly collected buffy coats. Briefly, PBMC were isolated by Ficoll-Hypaque density gradient centrifugation (GE Healthcare, Piscatway, N.J.) followed by positive sorting using anti-BDCA4-conjugated magnetic microbeads (Miltenyi Biotec, Auburn, Calif.). The recovered cells were stained with PE-Cy5-conjugated anti-CD4, APC-conjugated CD11c, and a cocktail of FITC-conjugated anti-CD3, anti-CD14, anti-CD16, anti-CD15, anti-CD20 and anti-CD56 (Lineage-FITC) (BD Pharmingen, San Diego, Calif.). The CD4+CD11c-Lin- (pDC precursors) were isolated by cell sorting. Purity was routinely >99%. PDC (5-10×10^4/well) were cultured in 96-well round-bottom plates in RPMI 1640 (GIBCO, Carlsbad, Calif.) supplemented with 10% FCS (Atlanta Biologicals, Lawrenceville, Ga.). Where indicated, pDC were stimulated with CpGA (1 μM), CpGB (1 μM), R837 (10 ug/ml), IRS (4 uM), non-CpG sequence (4 uM), and different concentrations of LL-37 and of human genomic DNA. To prepare LL-37.DNA complexes, CpGB, huDNA, non-CpG and LL-37 were mixed by inversion and incubated for 30 min at room temperature before being added to the cells.
# (§3) Supernatants samples were taken after 18-24 h after addition of the stimuli. Human IFN-α was measured using a human IFN-α ELISA kit (PBL Biomedical Laboratories, New Brunswick, N.J.) according to the company's instructions. IL-6 and TNF-α were detected using a kit for human IL6 and TNF-α (R&D Systems), respectively.
# [2] = test system: pDC; assay: pDC stimulation by supernatant of activated neutrophils (type I IFN); assay type: cell-based, human; conditions: neutrophils pretreated with inhibitor
# Excerpt: (Left panel) IFN-α released by pDC stimulated with NET w/o Pr-3 inhibitors, CpG, w/o Pr-3 inhibitors is used as positive control.
# These findings indicate that proteinase 3 inhibitors block the generation of the mature LL-37 peptide, thus inhibiting the LL-37-mediated break of innate tolerance to self-nucleic acids.
# [3] = molecular target: T1, proteinase 3 (Homo sapiens, UniProt P24158); assay: Cleavage of LL-37 from propeptide hCAP18 in activated neutrophils (Western blot); assay type: cell-based; conditions: pretreatment of neutrophils, PMA activation
# T1 construct: endogenous in cells
# T1 sequence (P24158 28-248): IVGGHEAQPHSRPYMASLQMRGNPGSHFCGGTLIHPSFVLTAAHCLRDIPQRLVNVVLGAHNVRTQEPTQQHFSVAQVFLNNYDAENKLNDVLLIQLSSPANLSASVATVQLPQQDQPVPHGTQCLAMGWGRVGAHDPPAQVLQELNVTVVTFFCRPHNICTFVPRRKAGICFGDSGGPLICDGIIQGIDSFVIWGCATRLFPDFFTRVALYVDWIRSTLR
# [4] = test system: plasmacytoid dendritic cells (pDC); assay: IFN-α and cytokine production by purified human pDC (ELISA of supernatants); assay type: cell-based; conditions: for pDC activation to produce IFN-α: substance alone added to purified pDC
# Excerpt: as §2, §3
# [5] = molecular target: T2, TLR-9 (Homo sapiens, UniProt Q9NR96); assay: Inhibition of IFN-α induction in pDC by TLR-9 agonist CpG sequences; assay type: cell-based
# T2 construct: PDC from healthy donors were purified from freshly collected buffy coats; endogenous in cells; host or cells: primary human pDC sorted from buffy coats of healthy donors
# T2 sequence (Q9NR96 26-1032): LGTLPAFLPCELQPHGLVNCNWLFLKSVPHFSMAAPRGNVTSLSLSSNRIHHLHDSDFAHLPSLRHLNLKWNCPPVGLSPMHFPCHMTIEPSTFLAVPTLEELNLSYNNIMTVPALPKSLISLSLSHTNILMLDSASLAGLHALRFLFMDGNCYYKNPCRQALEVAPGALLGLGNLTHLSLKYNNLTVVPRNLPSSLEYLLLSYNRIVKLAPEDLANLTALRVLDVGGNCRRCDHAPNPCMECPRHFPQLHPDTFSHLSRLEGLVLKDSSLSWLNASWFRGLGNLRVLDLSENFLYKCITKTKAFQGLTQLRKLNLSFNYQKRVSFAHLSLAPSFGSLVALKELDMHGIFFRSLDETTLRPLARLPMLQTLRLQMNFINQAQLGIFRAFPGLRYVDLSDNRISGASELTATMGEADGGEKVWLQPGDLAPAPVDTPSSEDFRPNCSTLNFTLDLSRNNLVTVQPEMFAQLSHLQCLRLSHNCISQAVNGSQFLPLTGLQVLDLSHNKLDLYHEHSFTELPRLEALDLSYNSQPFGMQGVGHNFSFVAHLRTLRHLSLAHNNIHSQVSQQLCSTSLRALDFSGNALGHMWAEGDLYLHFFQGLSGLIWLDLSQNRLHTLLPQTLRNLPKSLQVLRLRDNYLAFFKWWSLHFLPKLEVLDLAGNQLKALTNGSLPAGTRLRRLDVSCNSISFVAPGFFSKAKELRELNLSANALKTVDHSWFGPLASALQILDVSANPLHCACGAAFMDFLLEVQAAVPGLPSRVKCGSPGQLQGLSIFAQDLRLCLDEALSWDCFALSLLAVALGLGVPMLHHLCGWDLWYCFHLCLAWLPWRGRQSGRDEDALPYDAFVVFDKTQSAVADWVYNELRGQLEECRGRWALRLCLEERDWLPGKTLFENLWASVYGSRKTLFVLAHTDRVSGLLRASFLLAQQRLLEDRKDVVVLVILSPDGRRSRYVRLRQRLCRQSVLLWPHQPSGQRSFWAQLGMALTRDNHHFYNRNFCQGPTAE
# Description: as §1
# (§4) PDC from healthy donors were purified from freshly collected buffy coats. Briefly, PBMC were isolated by Ficoll-Hypaque density gradient centrifugation (GE Healthcare, Piscatway, N.J.) followed by positive sorting using anti-BDCA4-conjugated magnetic microbeads (Miltenyi Biotec, Auburn, Calif.). […]
# as §3
# [6] = molecular target: T3, TLR7 (Homo sapiens, UniProt Q9NYK1); assay: Inhibition of IFN-α induction in pDC by TLR7 agonist imiquimod; assay type: cell-based
# T3 construct: PDC from healthy donors were purified from freshly collected buffy coats; endogenous in cells; host or cells: primary human pDC sorted from buffy coats of healthy donors
# T3 sequence (Q9NYK1 27-1049): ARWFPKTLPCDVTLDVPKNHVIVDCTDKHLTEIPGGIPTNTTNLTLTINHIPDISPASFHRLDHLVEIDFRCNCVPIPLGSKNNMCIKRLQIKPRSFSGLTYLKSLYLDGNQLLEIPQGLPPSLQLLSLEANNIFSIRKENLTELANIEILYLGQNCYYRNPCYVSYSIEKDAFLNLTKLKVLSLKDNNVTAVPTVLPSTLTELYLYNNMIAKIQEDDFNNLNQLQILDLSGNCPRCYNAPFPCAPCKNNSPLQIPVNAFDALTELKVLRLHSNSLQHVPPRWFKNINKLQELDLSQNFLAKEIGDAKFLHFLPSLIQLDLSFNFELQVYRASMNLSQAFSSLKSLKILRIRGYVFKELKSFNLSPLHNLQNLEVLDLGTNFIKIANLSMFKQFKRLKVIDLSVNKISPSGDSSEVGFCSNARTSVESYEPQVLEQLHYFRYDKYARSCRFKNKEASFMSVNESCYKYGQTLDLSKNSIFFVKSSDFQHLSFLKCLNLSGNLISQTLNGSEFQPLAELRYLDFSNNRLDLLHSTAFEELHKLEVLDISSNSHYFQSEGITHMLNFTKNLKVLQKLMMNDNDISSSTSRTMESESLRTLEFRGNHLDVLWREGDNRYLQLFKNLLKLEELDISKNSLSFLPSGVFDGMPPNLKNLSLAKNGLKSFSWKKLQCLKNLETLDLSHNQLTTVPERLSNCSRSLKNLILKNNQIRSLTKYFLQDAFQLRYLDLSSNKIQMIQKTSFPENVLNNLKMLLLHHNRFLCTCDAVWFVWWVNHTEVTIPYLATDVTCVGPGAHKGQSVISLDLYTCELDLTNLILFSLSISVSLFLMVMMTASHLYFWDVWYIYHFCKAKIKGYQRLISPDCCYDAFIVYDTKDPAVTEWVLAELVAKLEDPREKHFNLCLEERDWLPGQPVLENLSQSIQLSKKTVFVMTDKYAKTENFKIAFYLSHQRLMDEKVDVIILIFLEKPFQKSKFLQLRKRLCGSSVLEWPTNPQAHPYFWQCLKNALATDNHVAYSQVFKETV
# Description: as §1, §4, §3
# [7] = test system: pDC; assay: pDC viability; assay type: cell-based, human; conditions: not shown
# [8] = test system: human genomic DNA; assay: Complex formation with DNA (ethidium bromide intercalation, size exclusion HPLC); assay type: binding
# Excerpt: (A) Emission spectra of human genomic DNA intercalated with Ethimidium bromide in the presence of increasing doses of LL-37. (B) Size exclusion HPLC of LL-37 alone, mut-LL-37 alone or DNA premixed with LL-37 or mut-37. […] Absorbance scales are different to accommodate the DNA peak.
molecule,measurement,setting,value
heparin,Effect on IFN-α induction by LL-37 in pDC,[1],completely abrogated; also recorded: inhibits the ability of LL-37 to induce IFN-α
MeOSuc-CMK,Capacity of activated neutrophils to stimulate pDC to produce type I IFNs,[2],abrogated; also recorded: inhibit the activation of pDC by self-DNA released by neutrophils
same,Cleavage of the 4 kD LL-37 peptide from hCAP18,[3],can be blocked; also recorded: block the cleavage of LL-37 from its propeptide hCAP
CC(C)C[C@H](NC(=O)[C@@H](NC(=O)N[C@@H](Cc1ccccc1)C(=O)O)[C@@H]1CCN=C(N)N1)C(=O)N[C@H](C=O)Cc1ccccc1 [Chymostatin],Capacity of activated neutrophils to stimulate pDC to produce type I IFNs,[2],abrogated; also recorded: inhibit the activation of pDC by self-DNA released by neutrophils
same,Cleavage of the 4 kD LL-37 peptide from hCAP18,[3],can be blocked; also recorded: block the cleavage of LL-37 from its propeptide hCAP
Pertussis Toxin [PTX],Effect on IFN-α induction by LL-37 in pDC,[1],did not inhibit IFN-α induction by LL-37
"Nc1ncnc2c1ncn2[C@@H]1O[C@H](COP(=O)(O)OP(=O)(O)OP(=O)(O)O)[C@@H](O)[C@H]1O [ATP, Adenosin triphopshate]",pDC activation to produce IFN-α,[4],did not result in IFN-α production by pDC
"TTTAGGGTTAGGGTTAGGGTTAGGG (listed as DNA, chemistry not given here) [IRS]",Effect on IFN-α induction by TLR-9 agonist CpG sequences in pDC,[5],block IFN-α induction by TLR-9 agonist CpG-sequences
same,Effect on IFN-α induction by LL-37 in pDC,[1],inhibited pDC activation to produce IFN-α
same,Effect on IFN-α induction by TLR7 agonist imiquimod in pDC,[6],not TLR7 agonist imiquimod
CCN(CC)CCCC(C)Nc1ccnc2cc(Cl)ccc12 (stereo not drawn) [Chloroquine],Effect on pDC viability,[7],no measurable effect on pDC viability
same,Effect on IFN-α induction by LL-37 in pDC,[1],inhibited LL-37-mediated IFN-α induction in a dose-dependent manner
"CN([C@@H](Cc1ccc(OS(=O)(=O)c2cccc3cnccc23)cc1)C(=O)N1CCN(c2ccccc2)CC1)S(=O)(=O)c1cccc2cnccc12 [KN62, KN-62]",Effect on IFN-α induction by LL-37 in pDC,[1],did not inhibit IFN-α induction by LL-37
"HBD-3: AMP cultured with pDC at equimolar doses (GIINTLQKYYCRVRGGRCAVLSCLPKEEQIGKCSTRGRKCCRRKK; ends and bridges not checked; cysteine pairing not given here; UniProt P81534 23-67, looked up)",pDC activation to produce IFN-α,[4],did not induce pDC activation to produce IFN-α
GGGGGACGATCGTCGGGGGG [CpGA],"IFN-α induction by pDC, single stranded form complexed to LL-37",[4],restored
same,"IFN-α induction by pDC, single stranded form (heat and flash cooling)",[4]; multimeric complex disrupted,strongly inhibited
WKYMV-peptide [W peptide],pDC activation to produce IFN-α,[4],did not result in IFN-α production by pDC
TCGTCGTTTTGTCGTTTTGTCGTT [phophodiesteric CpG-B],"IFN-α production by pDC stimulated with nucleic acid alone or combined with LL-37, as labelled",[4],unable to induce IFN-α
DNase I,Effect on IFN-α induction by LL-37 in pDC,[1],significantly inhibited
TCGTCGTTTTGTCGTTTTGTCGTT [phosphothiorate CpG-B],"IFN-α production by pDC stimulated with nucleic acid alone or combined with LL-37, as labelled",[4],induced significant levels of IFN-α
LLGDFFAVSKEKIGAEFVRIVQAIKDFLRNLVPRTES [mLL-37],pDC activation to produce IFN-α,[4],complete abrogation of pDC activation
same,pDC activation to produce IFN-α,[4]; listed as mutated LL-37 peptide,did not induce IFN-α
same,Complex formation with DNA,[8],not able to complex with DNA
B1,pDC activation to produce IFN-α,[4],did not induce pDC activation to produce IFN-α
